According to patent US8652846B2, “Medium derived from stem cells as a pharmaceutical composition” (Omnicyte Limited, priority 2008, dated 2014):

Key:
Rat liver cells [1] = experiment: Bilirubin levels of liver cells exposed to thioacetamide, OmniCytes without cell contact; format: cell-based; conditions: liver cells exposed to TAA only
Protocol: (§1) Rat liver cells were exposed to the hepatotoxin thioacetamide (TAA), which induces liver damage such as cirrhosis and fibrosis. The control was only exposed to TAA, whereas the experimental group was also exposed to OmniCytes without cell contact. Cell viability (expressed as mitochondrial dehydrogenase activity) was assessed.
Liver function was also assayed by measuring bilirubin levels. Aberrantly high levels of bilirubin are typically indicative of a liver disorder or malfunction.

Rat liver cells [2] = experiment: Viability of liver cells exposed to thioacetamide (mitochondrial dehydrogenase activity), OmniCytes without cell contact; format: cell-based; conditions: rat liver cells exposed to TAA only
Protocol: as §1

[3] = tested on: A549 lung cancer cell line; experiment: Apoptosis of A549 cells with OmniCytes in Transwell assay (no cell contact), FACS Annexin V/7-AAD; format: cell-based, human; conditions: A549, control group: staurosporine alone, Transwell with membrane
Protocol: (§2) Human non-small-cell lung cancer line A549 was obtained from American Type Culture Collection (catalogue number CCL-185, Rockville, Md., USA) and grown in Ham's F 12-K medium supplemented with 10% fetal bovine serum and 1% penicillin/streptomycin in a 37° C. humidified incubator with 5% CO2.
(§3) 3×10^5 cancer cells were plated into the bottom of 24 mm Transwell 6 well plates with or without […] pore polycarbonate membrane insert (Corning Life Sciences, USA) with 2 mL of the appropriate cell culture medium. […]
(§4) To determine effect of OmniCytes on apoptosis, 3×10^5 OmniCytes were added 24 hours after the onset of apoptosis induction either to the top of the Transwell insert with 1 ml α-MEM (Gibco, UK) supplemented with 30% FBS (Gibco, UK) and 10% GM-MIX (for no contact conditions) or directly into the same well as the cells (for contact conditions). […] After 24 or 48 hours the inserts were removed and the cancer cells analysed for apoptosis and Bcl-2, Bcl-xL and Bax expression.
(§5) Apoptosis was analysed using the method of staining with fluorescein isothiocyanate (FITC)-Annexin V and 7-AAD-FITC previously described by Ikewaki et al. (2007). […] FITC-Annexin V staining was measured in FL1-H and FITC-7-AAD staining in FL3-H. […]

A549 lung cancer cells = experiment: TNF-alpha blocking antibody study: A549 cells with staurosporine and OmniCytes without direct cell contact; format: cell-based, human; conditions: A549, control: staurosporine, OmniCyte-free
Protocol: The effect of TNF-alpha blocking antibodies was tested. A549 lung cancer cells were exposed to staurosporine and OmniCytes were added without direct cell contact. The control was OmniCyte-free. TNF-alpha blocking antibodies (Abeam™, Cambridge, UK) at two different concentrations (5 or 10 μg/mL) were added.

[4] = tested on: A549 lung cancer cell line; experiment: Apoptosis of A549 cells co-cultured with OmniCytes (direct cell contact), FACS Annexin V/7-AAD; format: cell-based, human; conditions: A549, control group: staurosporine alone, plate without membrane
Protocol: as §2, §3, §4, §5

[5] = tested on: A549 lung cancer cell line; experiment: Apoptosis of A549 cells with OmniCytes in Transwell assay (no cell contact), DAPI nuclear staining, immuno-fluorescent microscopy; format: cell-based, human; conditions: A549, control group: staurosporine alone
Protocol: 3×10^5 cancer cells were plated into the bottom of 24 mm Transwell 6 well plates with or without […] pore polycarbonate membrane insert (Corning Life Sciences, USA) with 2 mL of the appropriate cell culture medium. Transwell plates with a polycarbonate membrane insert allow the exchange of soluble factors but prevent cell-cell contact, whereas Transwell plates without the membrane allow cell to cell contact. After 24 hours apoptosis was induced in cancer cells according to the designated protocol. Cells were incubated at 37° C. in 5% CO2/95% air. […]
as §4
10^5 cells were fixed using 4% paraformaldehyde (PFA) for 15 minutes at room temperature and washed 3 times with PBS (Gibco, UK). […] Cells were visualised on a Zeiss fluorescent microscope and analysed using the Metamorph programme. […]
For each sample, a minimum of 5 random fields were assessed and at least 250 cells were counted. […]

SMILES	bilirubin levels (Rat liver cells [1])	cell viability (mitochondrial dehydrogenase activity) (Rat liver cells [2])	apoptosis (Annexin V positive cells) [3]	apoptosis (A549 lung cancer cells)	mean of apoptosis (Annexin V positive cells) [4]	apoptosis by nuclear staining (DAPI) [5]
CC(=N)S [TAA, thioacetamide]	caused bilirubin levels to rise	significantly decreased cell viability	–	–	–	–
CN[C@@H]1C[C@H]2O[C@@](C)([C@@H]1OC)n1c3ccccc3c3c4c(c5c6ccccc6n2c5c31)C(=O)NC4 [staurosporine]	–	–	26.85%±2.15	22.13%±0.74	22.77%±4.87	18.32%±1.81
